Where a SMILES comes first, the peptide text is derived from it.
Key:
human erythrocytes = test: In vitro hemolytic activity; format: cell-based; settings: human erythrocytes in PBS, 1 h, 37 °C, OD550; from dose response curves
Experimental: Potential erythrocyte hemolysis was tested by incubating serial dilutions of the AMPs in PBS with freshly collected erythrocytes at a ratio of 1:1 in 96-well polypropylene V-shape plates for 1 h at 37 °C. Control wells were treated with 0.1% Triton-X-100 to ensure complete lysis or PBS-only to represent no lysis. The erythrocytes were collected by centrifugation and the OD550 of the supernatant was measured using a plate reader. The percentage hemolysis was calculated as [drawing 1] 1 where Apeptide is the absorbance value of erythrocytes exposed to a known peptide concentration, Agrowth control is the absorbance of erythrocytes exposed to 0.1% Triton-X-100 and Ablank is the absorbance of erythrocytes exposed to the PBS. The concentrations at which a peptide caused 10% (HC10) and 50% (HC50) hemolysis was determined from the dose response curves.

C. auris TDG 1912 = test: microbe, parasite or virus in culture; format: cell-based, Candida auris; settings: C. auris TDG 1912
How it was run: (§1)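 Peptides 128→2 μg/mL, 2-fold series; inoculum ~5 × 10^5 CFU/mL from overnight culture (OD600 0.01, mixed 1:1). MHB non-cation-adjusted for bacteria, RPMI 1640 + 2% glucose for fungi. 37 °C, 20 h, OD600. MIC50/MIC90 at 50%/90% inhibition; n ≥ 3.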

P. aeruginosa PAO1 = test: microbe, parasite or virus in culture; format: cell-based, Pseudomonas aeruginosa; settings: P. aeruginosa PAO1 (S)
How it was run: as §1

P. aeruginosa NCTC 13437 = test: microbe, parasite or virus in culture; format: cell-based, Pseudomonas aeruginosa; settings: P. aeruginosa NCTC 13437 (R); shown in µM
How it was run: as §1

K. pneumoniae NCTC 13368 = test: microbe, parasite or virus in culture; format: cell-based, Klebsiella pneumoniae; settings: K. pneumoniae NCTC 13368 (R); shown in µM
How it was run: as §1

K. pneumoniae M6 = test: microbe, parasite or virus in culture; format: cell-based, Klebsiella pneumoniae; settings: K. pneumoniae M6 (S); shown in µM
How it was run: as §1

A. baumannii AYE = test: microbe, parasite or virus in culture; format: cell-based, Acinetobacter baumannii; settings: A. baumannii AYE (R); shown in µM
How it was run: as §1

A. baumannii ATCC 17978 = test: microbe, parasite or virus in culture; format: cell-based, Acinetobacter baumannii; settings: A. baumannii ATCC 17978 (S); shown in µM
How it was run: as §1

E. coli NCTC 12923 = test: microbe, parasite or virus in culture; format: cell-based, Escherichia coli; settings: E. coli NCTC 12923 (S); shown in µM
How it was run: as §1

E. coli LEC001 = test: microbe, parasite or virus in culture; format: cell-based, Escherichia coli; settings: E. coli LEC001 (R); shown in µM
How it was run: as §1

[1] = test system: C. parapsilosis NCPF 3209; test: microbe, parasite or virus in culture; format: cell-based; settings: C. parapsilosis NCPF 3209; shown in µM
How it was run: as §1

C. glabrata NCPF 8018 = test: microbe, parasite or virus in culture; format: cell-based; settings: C. glabrata NCPF 8018
How it was run: as §1

C. krusei NCPF 3876 = test: microbe, parasite or virus in culture; format: cell-based; settings: C. krusei NCPF 3876; shown in µM
How it was run: as §1

C. albicans NCPF 3281 = test: microbe, parasite or virus in culture; format: cell-based; settings: C. albicans NCPF 3281
How it was run: as §1

C. tropicalis NCPF 8760 = test: microbe, parasite or virus in culture; format: cell-based; settings: C. tropicalis NCPF 8760; shown in µM
How it was run: as §1

S. aureus (MRSA) USA300 = test: microbe, parasite or virus in culture; format: cell-based, Staphylococcus aureus; settings: S. aureus (MRSA) USA300 (R); shown in µM
How it was run: as §1

[2] = test system: S. aureus (MRSA) NCTC 13616; test: microbe, parasite or virus in culture; format: cell-based, Staphylococcus aureus; settings: S. aureus (MRSA) NCTC 13616 (R); shown in µM
How it was run: as §1

S. aureus (MRSA) 1199B = test: microbe, parasite or virus in culture; format: cell-based, Staphylococcus aureus; settings: S. aureus (MRSA) 1199B (R); shown in µM
How it was run: as §1

[3] = test system: S. aureus (MSSA) ATCC 9144; test: microbe, parasite or virus in culture; format: cell-based, Staphylococcus aureus; settings: S. aureus (MSSA) ATCC 9144 (S); shown in µM
How it was run: as §1

HaCat cell line = test: In vitro HaCat cytotoxicity (MTT); format: cell-based, human; settings: 21 h exposure, OD570, relative to untreated control
Experimental: The HaCat cell line (Cellonex, South Africa) was cultured in Dulbecco’s Modified Eagle Medium (DMEM) supplemented with 10% heat-inactivated fetal calf serum (FCS) and 1% antibiotic-antimycotic (Abs) and maintained at 5–10% CO2, 37 °C, 95% humidity. For cytotoxicity screening, 5.56 × 10^4 cells/mL were plated in a 96-well plate. After 24 h incubation, the cells are initially exposed to each peptide at a concentration of 256 μg/mL or 0.1% Triton-X-100 as the control for 21 h. If cytotoxicity was observed, at a level of significance of p < 0.0001 compared with the untreated control after 21 h, a dose-response assay was undertaken. Cell viability was determined by adding 10% 3-(4,5-dimethyl-2-thiazolyl)-2,5-diphenyl-2H-tetrazolium bromide (MTT) (1 mg/mL), to each well and after a further 3 h incubation the media was discarded, and the formazan crystals dissolved by adding 25% DMSO in ethanol. The absorbance was measured at OD570 by using the FLUOstar Omega multidetection microplate reader (BMG Labtech). Percentage cell viability was calculated relative to the untreated control. The LC50 was defined as the concentration of AMP treatment that results in 50% lethality of HaCat cells and was determined from the dose-response curves.

[4] = 50% growth inhibition, RPMI 1640 + 2% glucose, 37 °C, 20 h, OD600
[5] = 90% growth inhibition, RPMI 1640 + 2% glucose, 37 °C, 20 h, OD600
[6] = MHB, 37 °C, 20 h, OD600, min. three biological repeats
[7] = 50% growth inhibition, RPMI 1640 + 2% glucose, 37 °C, 20 h
[8] = 90% growth inhibition, RPMI 1640 + 2% glucose, 37 °C, 20 h

| SMILES | HC10 (concentration causing 10% hemolysis) (human erythrocytes) | Modal MIC50 (C. auris TDG 1912; [4]) | Modal MIC90 (C. auris TDG 1912; [5]) | Modal MIC50 (C. auris TDG 1912; shown in µM) | Modal MIC90 (C. auris TDG 1912; shown in µM) | Modal MIC (P. aeruginosa PAO1; [6]) | Modal MIC (P. aeruginosa PAO1; shown in µM) | Modal MIC (P. aeruginosa NCTC 13437) | Modal MIC (K. pneumoniae NCTC 13368) | Modal MIC (K. pneumoniae M6) | Modal MIC (A. baumannii AYE) | Modal MIC (A. baumannii ATCC 17978) | Modal MIC (E. coli NCTC 12923) | Modal MIC (E. coli LEC001) | Modal MIC50 [1] | Modal MIC90 [1] | Modal MIC50 (C. glabrata NCPF 8018; shown in µM) | Modal MIC90 (C. glabrata NCPF 8018; shown in µM) | Modal MIC50 (C. krusei NCPF 3876) | % HaCat cell death at initial screening (256μg/mL) ± SD (HaCat cell line) | further results |
| --- | --- | --- | --- | --- | --- | --- | --- | --- | --- | --- | --- | --- | --- | --- | --- | --- | --- | --- | --- | --- | --- |
| CC[C@H](C)[C@H](NC(=O)[C@H](CCCCN)NC(=O)[C@H](CCC(=O)O)NC(=O)[C@H](Cc1c[nH]c2ccccc12)NC(=O)[C@H](Cc1ccccc1)NC(=O)[C@H](CCCCN)NC(=O)CNC(=O)[C@H](CC(C)C)NC(=O)[C@H](C)N)C(=O)N[C@@H](CCCCN)C(=O)N[C@@H](CO)C(=O)N[C@@H](CC(C)C)C(=O)N[C@@H](Cc1ccccc1)C(N)=O [A1F5K8-IsCTa] (H-ALGKFWEKIKSLF-NH2) | 102 µg/mL | > 128 µg/mL | > 128 µg/mL | > 79.9 µM | > 79.9 µM | > 128 µg/mL | > 79.9 µM | 39.9 µM | 10 µM | 10 µM | 5 µM | 2.5 µM | 5 µM | 5 µM | 39.8 µM | 39.8 µM | 39.9 µM | 79.9 µM | 19.9 µM | 83.6 ±9.2% | Modal MIC90 (C. krusei NCPF 3876): 19.9 µM; Modal MIC50 (C. albicans NCPF 3281; shown in µM): 39.9 µM; Modal MIC90 (C. albicans NCPF 3281; shown in µM): 39.9 µM; Modal MIC50 (C. tropicalis NCPF 8760): 5 µM; Modal MIC90 (C. tropicalis NCPF 8760): 5 µM; Modal MIC (S. aureus (MRSA) USA300): 10 µM; Modal MIC [2]: 10 µM; Modal MIC (S. aureus (MRSA) 1199B): 5 µM; Modal MIC [3]: 2.5 µM |
| CC[C@H](C)[C@H](NC(=O)[C@H](C)NC(=O)[C@H](CCCCN)NC(=O)[C@H](CCCNC(=N)N)NC(=O)[C@@H](NC(=O)[C@H](CC(C)C)NC(=O)[C@H](CO)NC(=O)[C@H](Cc1ccccc1)NC(=O)[C@H](CC(C)C)NC(=O)[C@@H](N)Cc1ccccc1)[C@@H](C)CC)C(=O)NCC(=O)NCC(=O)N[C@@H](CC(C)C)C(=O)N[C@H](C(=O)N[C@@H](CO)C(=O)N[C@@H](C)C(=O)N[C@@H](Cc1ccccc1)C(=O)N[C@@H](CCCCN)C(=O)O)[C@@H](C)CC [A3] | 9 µg/mL |  |  |  |  |  |  |  |  |  |  |  |  |  |  |  |  |  |  | 100 ± 9.7% |  |
| CC[C@H](C)[C@H](NC(=O)[C@H](C)NC(=O)[C@H](CCCCN)NC(=O)[C@@H]1CCCN1C(=O)[C@@H](NC(=O)[C@H](CC(C)C)NC(=O)[C@H](CCCCN)NC(=O)[C@H](Cc1ccccc1)NC(=O)[C@H](CC(C)C)NC(=O)[C@@H](N)Cc1ccccc1)[C@@H](C)CC)C(=O)N[C@@H](CCCCN)C(=O)N[C@@H](CCCCN)C(=O)N[C@@H](CC(C)C)C(=O)N[C@H](C(=O)N[C@@H](CO)C(=O)N[C@@H](CCCCN)C(=O)N[C@@H](Cc1ccccc1)C(=O)N[C@@H](CCCCN)C(=O)O)[C@@H](C)CC [AamAP1-Lys] (H-FLFKLIPKAIKKLISKFK-OH) | 94 µg/mL |  |  |  |  |  |  |  |  |  |  |  |  |  |  |  |  |  |  | 99.1 ± 8.7% |  |
| CC[C@H](C)[C@H](NC(=O)[C@H](C)NC(=O)[C@H](CCCCN)NC(=O)[C@@H]1CCCN1C(=O)[C@@H](NC(=O)[C@H](CC(C)C)NC(=O)[C@H](CO)NC(=O)[C@H](Cc1ccccc1)NC(=O)[C@H](CC(C)C)NC(=O)[C@@H](N)Cc1ccccc1)[C@@H](C)CC)C(=O)NCC(=O)NCC(=O)N[C@@H](CC(C)C)C(=O)N[C@H](C(=O)N[C@@H](CO)C(=O)N[C@@H](C)C(=O)N[C@@H](Cc1ccccc1)C(=O)N[C@@H](CCCCN)C(=O)O)[C@@H](C)CC [AamAP-S1] | 128 µg/mL |  |  |  |  |  |  |  |  |  |  |  |  |  |  |  |  |  |  | 85 ±17.9% | HC50 (concentration causing 50% hemolysis) (human erythrocytes): 195 µg/mL |
| CC[C@H](C)[C@H](N)C(=O)N[C@@H](CC(C)C)C(=O)NCC(=O)N[C@@H](CCCCN)C(=O)N[C@H](C(=O)N[C@@H](Cc1c[nH]c2ccccc12)C(=O)N[C@@H](CCCCN)C(=O)N1CCC[C@H]1C(=O)N[C@H](C(=O)N[C@@H](CCCCN)C(=O)N[C@@H](CCCCN)C(=O)N[C@@H](CC(C)C)C(=O)N[C@@H](Cc1ccccc1)C(N)=O)[C@@H](C)CC)[C@@H](C)CC [K7P8K11-IsCTa] (H-ILGKIWKPIKKLF-NH2) |  | > 128 µg/mL | > 128 µg/mL | > 79 µM | > 79 µM | > 128 µg/mL | > 79 µM | 39.5 µM | 39.5 µM | 19.8 µM | 4.9 µM | 4.9 µM | 9.9 µM | 39.5 µM | 39.5 µM | 79 µM | > 79 µM | > 79 µM | 19.8 µM | 89.2 ± 9.1% | Modal MIC50 (C. glabrata NCPF 8018; [7]): > 128 µg/mL; Modal MIC90 (C. glabrata NCPF 8018; [8]): > 128 µg/mL; Modal MIC90 (C. krusei NCPF 3876): 39.5 µM; Modal MIC50 (C. albicans NCPF 3281; [7]): > 128 µg/mL; Modal MIC90 (C. albicans NCPF 3281; [8]): > 128 µg/mL; Modal MIC50 (C. albicans NCPF 3281; shown in µM): > 79 µM; Modal MIC90 (C. albicans NCPF 3281; shown in µM): > 79 µM; Modal MIC50 (C. tropicalis NCPF 8760): 4.9 µM; Modal MIC90 (C. tropicalis NCPF 8760): 9.9 µM; Modal MIC (S. aureus (MRSA) USA300): 39.5 µM; Modal MIC [2]: 39.5 µM; Modal MIC (S. aureus (MRSA) 1199B): 19.8 µM; Modal MIC [3]: 4.9 µM |
